Laboratory results published in PubChem BioAssay AID2060604 (Molecular Pharmacology Branch, DTP, NCI, 2025).

Tested on: 379773-124-R-J2-PDC complex spheroids, viability % test/control
Test: Anticancer human tumor 379773-124-R-J2-PDC patient-derived endometrial carcinoma cell line growth inhibition [CLK]
Conditions: for viability, T/C: stronger effect = lower value
Procedure, shortened: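 Multi-cell-type spheroids combined patient-derived tumor cells with HUVEC endothelial cells and human mesenchymal stem cells. Paired agents were dosed in half-log steps down from about clinical Cmax, or from 10 microM where Cmax was unknown.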

[1] = curve of first compound, second compound 0.0316 µM
[2] = curve of first compound, second compound 0.1 µM
[3] = curve of first compound, second compound 0.316 µM
[4] = curve of first compound, second compound 1 µM
[5] = curve of first compound, second compound 3.16 µM
[6] = curve of first compound, second compound 10 µM
[7] = second compound 0.0316 µM, first compound 0.0316 µM
[8] = second compound 0.0316 µM, first compound 0.1 µM
[9] = second compound 0.0316 µM, first compound 0.316 µM
[10] = second compound 0.0316 µM, first compound 1 µM
[11] = second compound 0.1 µM, first compound 0.0316 µM
[12] = second compound 0.1 µM, first compound 0.1 µM
[13] = second compound 0.1 µM, first compound 0.316 µM
[14] = second compound 0.1 µM, first compound 1 µM
[15] = second compound 0.316 µM, first compound 0.0316 µM
[16] = second compound 0.316 µM, first compound 0.1 µM
[17] = second compound 0.316 µM, first compound 0.316 µM
[18] = second compound 0.316 µM, first compound 1 µM
[19] = second compound 1 µM, first compound 0.0316 µM
[20] = second compound 1 µM, first compound 0.1 µM
[21] = second compound 1 µM, first compound 0.316 µM
[22] = second compound 1 µM, first compound 1 µM
[23] = second compound 3.16 µM, first compound 0.0316 µM
[24] = second compound 3.16 µM, first compound 0.1 µM
[25] = second compound 3.16 µM, first compound 0.316 µM
[26] = second compound 3.16 µM, first compound 1 µM
[27] = second compound 10 µM, first compound 0.0316 µM
[28] = second compound 10 µM, first compound 0.1 µM
[29] = second compound 10 µM, first compound 0.316 µM
[30] = second compound 10 µM, first compound 1 µM
[31] = second compound 0.0316 µM, first compound 3.16 µM
[32] = second compound 0.0316 µM, first compound 10 µM
[33] = second compound 0.1 µM, first compound 3.16 µM
[34] = second compound 0.1 µM, first compound 10 µM
[35] = second compound 0.316 µM, first compound 3.16 µM
[36] = second compound 0.316 µM, first compound 10 µM
[37] = second compound 1 µM, first compound 3.16 µM
[38] = second compound 1 µM, first compound 10 µM
[39] = second compound 3.16 µM, first compound 3.16 µM
[40] = second compound 3.16 µM, first compound 10 µM
[41] = second compound 10 µM, first compound 3.16 µM
[42] = second compound 10 µM, first compound 10 µM
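Also: compound exposure lasted seven days before the viability readout.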
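For viability, T/C in this document: 100% = DMSO vehicle control wells.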

CNC(=O)c1ccc(Nc2nc(OC3CCCC3)c3c(-c4ccc5nc(C)oc5c4)c[nH]c3n2)c(OC)c1
viability, T/C (compound 0.0316 µM): 82.9% [middle of 12 runs]
viability, T/C (compound 0.1 µM): 39.7% [middle of 12 runs]
viability, T/C (compound 0.316 µM): 39% [middle of 12 runs]
viability, T/C (compound 1 µM): 32.1% [middle of 12 runs]
viability, T/C (compound 3.16 µM): 35.5% [middle of 12 runs]
viability, T/C (compound 10 µM): 33.9% [middle of 12 runs]
IC50 (compound alone, run of 09/19/2023): 75.8 nM [middle of 12 runs]

COc1c(OCCCN2CCOCC2)ccc2c3n(c(=NC(=O)c4cnc(N)nc4)nc12)CCN3 + CN1CCN(c2cc(C(=O)Nc3cc4cc(-c5cnn(C)c5)ccc4cn3)ccn2)CC1
IC50 [1]: 70.5 nM
IC50 [2]: 50.6 nM
IC50 [3]: < 3.16 nM
IC50 [4]: < 3.16 nM
IC50 [5]: < 3.16 nM
IC50 [6]: < 3.16 nM
viability, T/C (second compound 0.0316 µM, first compound 0.00316 µM): 94.2%
viability, T/C (second compound 0.0316 µM, first compound 0.01 µM): 92.8%
viability, T/C [7]: 87.6%
viability, T/C [8]: 33.5%
viability, T/C [9]: 10.9%
viability, T/C [10]: 2.85%
viability, T/C (second compound 0.1 µM, first compound 0.00316 µM): 89.6%
viability, T/C (second compound 0.1 µM, first compound 0.01 µM): 74.7%
viability, T/C [11]: 65.4%
viability, T/C [12]: 31.4%
viability, T/C [13]: 6.86%
viability, T/C [14]: 2.02%
viability, T/C (second compound 0.316 µM, first compound 0.00316 µM): 21%
viability, T/C (second compound 0.316 µM, first compound 0.01 µM): 23.7%
viability, T/C [15]: 18.5%
viability, T/C [16]: 6.99%
viability, T/C [17]: 3.33%
viability, T/C [18]: 1.61%
viability, T/C (second compound 1 µM, first compound 0.00316 µM): 0.15%
viability, T/C (second compound 1 µM, first compound 0.01 µM): 0.35%
viability, T/C [19]: 0.15%
viability, T/C [20]: 0.11%
viability, T/C [21]: 0.09%
viability, T/C [22]: 0.08%
viability, T/C (second compound 3.16 µM, first compound 0.00316 µM): 0.07%
viability, T/C (second compound 3.16 µM, first compound 0.01 µM): 0.45%
viability, T/C [23]: 0.29%
viability, T/C [24]: 0.11%
viability, T/C [25]: 0.11%
viability, T/C [26]: 0.1%
viability, T/C (second compound 10 µM, first compound 0.00316 µM): 0.16%
viability, T/C (second compound 10 µM, first compound 0.01 µM): 0.13%
viability, T/C [27]: 0.92%
viability, T/C [28]: 0.79%
viability, T/C [29]: 0.79%
viability, T/C [30]: 0.15%

C#Cc1c(F)ccc2cc(O)cc(-c3ncc4c(N5CC6CCC(C5)N6)nc(OCC56CCCN5CC(F)C6)nc4c3F)c12 (stereo not drawn) + CN1CCN(c2cc(C(=O)Nc3cc4cc(-c5cnn(C)c5)ccc4cn3)ccn2)CC1
IC50 [1]: > 10000 nM
IC50 [2]: > 10000 nM
IC50 [3]: < 31.6 nM
IC50 [4]: < 31.6 nM
IC50 [5]: < 31.6 nM
IC50 [6]: < 31.6 nM
viability, T/C [7]: 88.4%
viability, T/C [8]: 91.4%
viability, T/C [9]: 93%
viability, T/C [10]: 87.5%
viability, T/C [31]: 103%
viability, T/C [32]: 99.3%
viability, T/C [11]: 89.7%
viability, T/C [12]: 84.5%
viability, T/C [13]: 75.7%
viability, T/C [14]: 77%
viability, T/C [33]: 99.1%
viability, T/C [34]: 72.8%
viability, T/C [15]: 35.7%
viability, T/C [16]: 27.4%
viability, T/C [17]: 35.1%
viability, T/C [18]: 33.3%
viability, T/C [35]: 32.5%
viability, T/C [36]: 28.4%
viability, T/C [19]: 0.19%
viability, T/C [20]: 0.22%
viability, T/C [21]: 0.24%
viability, T/C [22]: 1.34%
viability, T/C [37]: 0.78%
viability, T/C [38]: 0.14%
viability, T/C [23]: 0.14%
viability, T/C [24]: 2.72%
viability, T/C [25]: 0.76%
viability, T/C [26]: 2.34%
viability, T/C [39]: 1.68%
viability, T/C [40]: 1.37%
viability, T/C [27]: 2.32%
viability, T/C [28]: 0.23%
viability, T/C [29]: 0.32%
viability, T/C [30]: 3.73%
viability, T/C [41]: 1.56%
viability, T/C [42]: 0.31%

COC1C=CCC(C)C(C)S(=O)(=O)NC(=O)c2ccc3c(c2)N(CC2CCC21)CC1(CCCc2cc(Cl)ccc21)CO3 (stereo not drawn) + CN1CCN(c2cc(C(=O)Nc3cc4cc(-c5cnn(C)c5)ccc4cn3)ccn2)CC1
IC50 [1]: 4970 nM
IC50 [2]: 4750 nM
IC50 [3]: < 31.6 nM
IC50 [4]: < 31.6 nM
IC50 [5]: < 31.6 nM
IC50 [6]: < 31.6 nM
viability, T/C [7]: 87.2%
viability, T/C [8]: 97.5%
viability, T/C [9]: 74.6%
viability, T/C [10]: 86%
viability, T/C [31]: 79.7%
viability, T/C [32]: 4.02%
viability, T/C [11]: 77.2%
viability, T/C [12]: 73.5%
viability, T/C [13]: 78.7%
viability, T/C [14]: 78.2%
viability, T/C [33]: 76%
viability, T/C [34]: 2.54%
viability, T/C [15]: 24.8%
viability, T/C [16]: 29.9%
viability, T/C [17]: 30.9%
viability, T/C [18]: 26.5%
viability, T/C [35]: 29.6%
viability, T/C [36]: 1.06%
viability, T/C [19]: 0.39%
viability, T/C [20]: 0.17%
viability, T/C [21]: 0.35%
viability, T/C [22]: 0.18%
viability, T/C [37]: 0.65%
viability, T/C [38]: 0.11%
viability, T/C [23]: 0.12%
viability, T/C [24]: 0.14%
viability, T/C [25]: 1.19%
viability, T/C [26]: 0.82%
viability, T/C [39]: 0.11%
viability, T/C [40]: 0.1%
viability, T/C [27]: 0.48%
viability, T/C [28]: 0.72%
viability, T/C [29]: 0.18%
viability, T/C [30]: 1.21%
viability, T/C [41]: 0.37%
viability, T/C [42]: 0.23%
